Measured values as given in patent US12018172B2, “Sidechain functionalized organosiloxanes, coating compositions containing sidechain functionalized organosiloxanes, coated articles, and methods of making and methods of use thereof” (Adaptive Surface Technologies, Inc., priority 2018, dated 2024).

Assay: Biocide miscibility screening
Format: physicochemical
Settings: 50:50 mixture, 24 hrs
From the text: Each component was mixed as 50:50 (based on active solids) mixture. The content was allowed to sit for 24 hrs before photographing.

## N#Cc1c(-c2ccc(Cl)cc2)[nH]c(C(F)(F)F)c1Br [Econea, Tralopyril 4-bromo-2-(4-chlorophenyl)-5-(trifluoromethyl)-1H-pyrrole-3-carbonitrile]
  Miscibility of Econea and SeaNine 211N with each other: not miscible
  Miscibility with AM-14: only partially miscible
  Miscibility with AM-24: good miscibility
  Miscibility with PDMS (silanol): only partially miscible

## CCCCCCCCn1sc(Cl)c(Cl)c1=O [SeaNine 211N, 4,5-Dichloro-2-n-octyl-4-isothiazolin-4-one]
  Miscibility of Econea and SeaNine 211N with each other: not miscible
  Miscibility with AM-14: miscible
  Miscibility with AM-24: miscible
  Miscibility with PDMS (silanol): did not show complete miscibility
